Experimental data: patent publication US12419875B2, “Use of Axitinib and analogs thereof in preparing blood-brain barrier permeability regulator” (ZHEJIANG UNIVERSITY, priority 2018, dated 2025)

Key:
[1] = tested on: pathological blood-brain barrier (bEnd.3 cells co-incubated with U87 MG glioma cells); assay: Pathological blood-brain barrier Transwell model, FITC-dextran transmembrane transport; assay type: cell-based; settings: 10 μM, 24 hours, then FITC-dextran 10 kDa for 4 hours; FIG. 11
Procedure: A Transwell model of co-incubation of brain microvascular endothelial cells bEnd.3 and glioma cells U87 MG simulates a pathological blood-brain barrier. Axitinib (10 μM), an Axitinib analog of phosphatidylinositol kinase (PI3K) inhibitor LY294002 (10 μM), protein kinase B (AKT) agonist SC79 (10 μM) were added into the Transwell chamber. After 24 hours, the Transwell chamber and the outer chamber were cleaned with PBS, and a solution of FITC-dextran in HBSS was added to the Transwell chamber, and was left for 4 hours. […] A physiological blood-brain barrier simulated by a Transwell model of brain microvascular endothelial cell bEnd.3 was used as a positive control (n=3).
U87 MG glioma cells were used as brain tumor model cells. 1.5 mL suspension of well-grown U87 MG cell suspension was inoculated in a 12-well plate at a cell density of 2×10^5/well. Incubation was continued at 37° C. and 5% CO2 until the cells adhere. […]
The physiological blood-brain barrier and the pathological blood-brain barrier as constructed in Method 1 and Method 2 in the Example 1 were used as models, respectively. […] After the cells were incubated at 37° C. in the dark for 4 hours, concentration of FITC-dextran transferred to the outer chamber via the Transwell chamber was detected with a fluorescence spectrophotometer.

[2] = tested on: pathological blood-brain barrier; assay: Evans blue permeation into the brain, in situ glioma model; assay type: in vivo, BABL/c nude mice; settings: glioma nude mice, 10 mg/kg tail vein, Evans blue after 24 hours; vs tumor-bearing control; FIGS. 18 and 19
Procedure: After 24 hours, an Evans blue solution was injected into tail veins at an administration dose of 5 mg/kg.
After 24 hours, an Evans blue solution was injected into tail veins at an administration dose of 5 mg/kg. […] The Evans blue was extracted from the brain tissue with an organic solvent of N,N-dimethylformamide. The result as shown in the figure is the amount of Evans blue permeated into the brain as quantitatively detected by ultraviolet spectrophotometry (n=3).
Male BABL/c nude mice (20±2 g) were used as the model animals. U87-luci glioma cells expressing luciferase were inoculated in the striatum area of nude mice at a concentration of 5×10^5 cells/5 μL by means of a brain stereotaxic instrument (inoculation coordinates, 0.8 mm on the anterior side of bregma, 2 mm on the right side, and 3 mm in depth), to construct an in situ glioma model. […] After 24 hours, an Evans blue solution was injected into tail veins at an administration dose of 5 mg/kg. […] The distribution intensity of Evans blue in the brain tissue was qualitatively observed with a small animal live imaging instrument. The Evans blue was extracted from the brain tissue with an organic solvent of N,N-dimethylformamide. The amount of Evans blue permeated into the brain was quantitatively detected by ultraviolet spectrophotometry.

[3] = tested on: bEnd.3 cells; assay: Cell survival rate by tetrazolium blue colorimetry, bEnd.3 cells; assay type: cell-based; settings: 10 μM (therapeutic dose), FIGS. 13 and 14
Procedure: (§1) FIG. 13: Evaluation of cell survival rate in a Transwell model. A Transwell model of co-incubation of brain microvascular endothelial cells bEnd.3 and glioma cells U87 MG simulates a pathological blood-brain barrier. Axitinib (10 μM) and an Axitinib analog of phosphatidylinositol kinase (PI3K) inhibitor LY294002 (10 μM) were added into the Transwell chamber. After 24 hours, the survival rate of bEnd.3 cells in the Transwell chamber (Panel A) and U87 MG cells in the Transwell outer chamber (Panel B) were detected by tetrazolium blue colorimetry (n=3).
(§2) FIG. 14: Evaluation of Cytotoxicity for Axitinib and an analog thereof. […] Cell survival rate was detected by tetrazolium blue colorimetry. […]
(§3) The physiological blood-brain barrier and the pathological blood-brain barrier as constructed in Method 1 and Method 2 in the Example 1 were used as models, respectively. […] Absorbance at 570 nm was measured with a microplate reader. The survival rate of cells was calculated according to the following formula: Survival rate of cells (%)=(absorbance value of a test group/absorbance value of a control group)×100%
(§4) In addition, bEnd.3 cells and U87 MG glioma cells were used as model cells to evaluate the cytotoxicity of Axitinib and an Axitinib analog of phosphatidylinositol kinase (PI3K) inhibitor LY294002 with the tetrazolium blue colorimetric method. […] Absorbance at 570 nm was measured with a microplate reader.

[4] = tested on: pathological blood-brain barrier (bEnd.3 cells with tumor cell culture); assay: Tumor cell culture co-incubated with bEnd.3 cells (U87MG removed), cell transmembrane resistance; assay type: cell-based; settings: tumor cell culture kept, 10 μM, 24 hours, FIG. 15
Procedure: FIG. 15: Co-incubation of a tumor cell culture and bEnd.3 cells in vitro, regulation of blood-brain barrier permeability by Axitinib and an analog thereof, and determination of a cell transmembrane resistance. A Transwell model of co-incubation of brain microvascular endothelial cells bEnd.3 and glioma cells U87 MG simulates a pathological blood-brain barrier. Once a pathological blood-brain barrier model was formed, U87MG glioma cells in the outer chamber of Transwell were removed, while the tumor cell cultures were remained. Axitinib (10 μM) and an Axitinib analog of phosphatidylinositol kinase (PI3K) inhibitor LY294002 (10 μM) were added to the Transwell chamber. After 24 hours, cell transmembrane resistance was detected by a cell resistance meter. A physiological blood-brain barrier simulated by a Transwell model of brain microvascular endothelial cell bEnd.3 was used as a positive control (n=5).
The physiological blood-brain barrier and the pathological blood-brain barrier as constructed in Method 1 and Method 2 in the Example 1 were used as models, respectively. Once a pathological blood-brain barrier model was formed, U87MG glioma cells in the outer chamber of Transwell were removed, while the tumor cell cultures were remained. […] Cell transmembrane resistance was detected by a cell resistance meter.

[5] = tested on: pathological blood-brain barrier; assay: Evans blue permeation into the brain after a single dose, model of Parkinson's disease; assay type: in vivo, C57/BL6 mice; settings: Parkinson's disease mice, 10 mg/kg tail vein, Evans blue after 24 hours; vs Parkinson's control; FIGS. 24 and 25
[6] = tested on: pathological blood-brain barrier; assay: Evans blue permeation into the brain after treatment, model of Parkinson's disease; assay type: in vivo, C57/BL6 mice
[7] = tested on: U87 MG glioma cells; assay: Cell survival rate by tetrazolium blue colorimetry, U87 MG cells; assay type: cell-based; settings: U87MG cells, 10 μM (therapeutic dose); FIGS. 13 and 14
Procedure: as §1, §2, §3, §4

[8] = tested on: pathological blood-brain barrier (bEnd.3 cells co-incubated with U87 MG glioma cells); assay: Pathological blood-brain barrier Transwell model (bEnd.3 co-incubated with U87 MG), cell transmembrane resistance; assay type: cell-based; settings: 24 hours
Procedure: A Transwell model of co-incubation of brain microvascular endothelial cells bEnd.3 and glioma cells U87 MG simulates a pathological blood-brain barrier. Axitinib at different concentrations (0, 0.05 μg/mL, 0.1 μg/mL, 0.5 g/mL, 1 μg/mL, 4 μg/mL, 5 μg/mL, 10 μg/mL, 20 μg/mL) was allowed to act on the Transwell chamber. After 24 hours, cell transmembrane resistances were detected by a cell resistance meter. A physiological blood-brain barrier simulated by a Transwell model of brain microvascular endothelial cell bEnd.3 was used as a positive control (n=5).
A Transwell model of co-incubation of brain microvascular endothelial cells bEnd.3 and glioma cells U87 MG simulates a pathological blood-brain barrier. Axitinib (10 μM), an Axitinib analog of phosphatidylinositol kinase (PI3K) inhibitor LY294002 (10 μM), protein kinase B (AKT) agonist SC79 (10 μM) were added into the Transwell chamber. After 24 hours, cell transmembrane resistance was detected by a cell resistance meter. A physiological blood-brain barrier simulated by a Transwell model of brain microvascular endothelial cell bEnd.3 was used as a positive control (n=5).
U87 MG glioma cells were used as brain tumor model cells. 1.5 mL suspension of well-grown U87 MG cell suspension was inoculated in a 12-well plate at a cell density of 2×10^5/well. Incubation was continued at 37° C. and 5% CO2 until the cells adhere. Then, the physiological blood-brain barrier as constructed by Method 1 in the Example 1, i.e., the Transwell chamber with bEnd.3 cells grown, was transferred to the 12-well plate with U87 MG cells grown. Co-culture was further continued for 24 hours to obtain a cell model of pathological blood-brain barrier.
The physiological blood-brain barrier as constructed by Method 2 in the Example 1 was used as a model. Axitinib at different concentrations was added to the Transwell chamber for stimulation.
The physiological blood-brain barrier and the pathological blood-brain barrier as constructed in Method 1 and Method 2 in the Example 1 were used as models, respectively. Axitinib (10 μM), an Axitinib analog of phosphatidylinositol kinase (PI3K) inhibitor LY294002 (10 μM), protein kinase B (AKT) agonist SC79 (10 μM) were added into the Transwell chamber of the pathological blood-brain barrier model as constructed in Method 2 in the Example 1. After 24 hours, the Transwell chamber with bEnd.3 cells grown was transferred to another 12-well plate, washed with PBS for 3 times, and 0.5 mL HBSS nutrient solution was added to the chamber, and the outer chamber was supplemented with 1.5 mL HBSS nutrient solution. The cells were equilibrated at 37° C. for 15 minutes. Cell transmembrane resistance was detected by a cell resistance meter.

[9] = tested on: U87-luci glioma; assay: Glioma growth (bioluminescent imaging) and life cycle, in situ glioma model; assay type: in vivo, BABL/c nude mice; settings: 10 mg/kg tail vein
Procedure: Administration was performed for 7 consecutive days. Growth of glioma was monitored by a bioluminescent imaging technology. […] A physiological saline group was used as control.
Male BABL/c nude mice (20±2 g) were used as the model animals. U87-luci glioma cells expressing luciferase were inoculated in the striatum area of nude mice at a concentration of 5×10^5 cells/5 μL by means of a brain stereotaxic instrument (inoculation coordinates, 0.8 mm on the anterior side of bregma, 2 mm on the right side, and 3 mm in depth), to construct an in situ glioma model. […] Administration was performed for 7 consecutive days. Growth of glioma was monitored by a bioluminescent imaging technology.

## CNC(=O)c1ccccc1Sc1ccc2c(/C=C/c3ccccn3)n[nH]c2c1 [Axitinib, N-methyl-2-((3-((1E)-2-(pyridine-2-yl)ethenyl)-1H-indazol-6-yl)sulfanyl)benzamide]
[1]
  FITC-dextran transmembrane transport (blood-brain barrier permeability): reduce blood-brain barrier permeability
[2]
  Amount of Evans blue permeated into the brain: the amount of Evans blue permeated into the brain is reduced
[3]
  Cytotoxicity: do not produce significant cytotoxicity
[4]
  Cell transmembrane resistance (blood-brain barrier function): the blood-brain barrier function is recovered from a pathologically impaired state to a state close to a physiological barrier
[5]
  Amount of Evans blue permeated into the brain: the amount of Evans blue permeated into the brain is reduced
[6]; Axitinib 10 mg/kg 7 days vs levodopa 20 mg/kg 10 days
  Amount of Evans blue permeated into the brain, compared with the levodopa treatment group: significantly lower than that of the levodopa treatment group
[6]; Axitinib 10 mg/kg tail vein 7 days, levodopa 20 mg/kg intraperitoneally 10 days, vs Parkinson's control, FIGS. 26 and 27
  Amount of Evans blue permeated into the brain: reduced to varied degrees
[7]
  Cytotoxicity: do not produce significant cytotoxicity
[8]; 10 μM, FIG. 10
  Cell transmembrane resistance (blood-brain barrier function): promote recovery of a blood-brain barrier function from a pathologically impaired state to a state close to a physiological barrier
[8]; FIG. 9
  Concentration at which blood-brain barrier permeability is effectively reduced (cell transmembrane resistance): 0.5˜20 μg/mL
[8]; FIG. 9, same range in μM
  Concentration at which blood-brain barrier permeability is effectively reduced (cell transmembrane resistance): 1.29 to 51.75 µM
[8]; Axitinib 0-20 μg/mL, FIG. 9
  Cell transmembrane resistance, dependence on concentration: dose-dependent
[9]; 7 consecutive days from Day 4, vs saline control, FIG. 20
  Growth of glioma in situ: significantly inhibited
[9]; 7 consecutive days, FIG. 21
  Life cycle of the animal: significantly prolonged
